# Assay results taken from US20230280275A1, “PHOTOACTIVATABLE VIBRATIONAL PROBES AND USES THEREOF” (California Institute of Technology, priority 2021, published 2023).
# What was measured:
# endoplasmic reticulum = test: Live-cell photo-uncaging ER imaging, SRS/fluorescence co-localization; format: cell-based; conditions: live HeLa cells
# Excerpt: (§1) An integrated laser (picoEMERALD, Applied Physics and Electronics, Inc.) was used as a light source for both pump and Stokes beams. It produces 2 ps pump (tunable from 770 nm - 990 nm, bandwidth 0.5 nm, spectral bandwidth ~ 7 cm-1 ) and Stokes (1031.2 nm, spectral bandwidth 10 cm-1 ) beams with 80 MHz repetition rate. Stokes beam is modulated at 20 MHz by an internal electro-optic modulator. The spatially and temporally overlapped pump and Stokes beams are introduced into an inverted multiphoton laser scanning microscopy (FV3000, Olympus), and then focused onto the sample by a 25X water objective (XLPLN25XWMP, 1.05 N.A., Olympus). Transmitted pump and Stokes beams are collected by a high N.A. condenser lens (oil immersion, 1.4 N.A., Olympus) and pass through a bandpass filter (893/209 BrightLine, 25 mm, AVR Optics) to filter out Stokes beam. A large area (10×10 mm) Si photodiode (S3590-09, Hamamatsu) is used to measure the remaining pump beam intensity. 64 V DC voltage was used on the photodiode to increase saturation threshold and reduce response time. The output current is terminated by a 50 Ω terminator and pre-filtered by an 19.2-23.6-MHz band-pass filter (BBP-21.4+, Mini-Circuits) to reduce laser and scanning noise. The signal is then demodulated by a lock-in amplifier (SR844, Stanford Research Systems) at the modulation frequency. The in-phase X output is fed back to the Olympus IO interface box (FV30-ANALOG) of the microscope. Image acquisition speed is limited by 30 µs time constant set for the lock-in amplifier. Correspondingly, we use 80 µs pixel dwell time, which gives a speed of 8.5 s frame-1 for a 320-by-320-pixel field of view. Laser powers are monitored through image acquisition by an internal power meter and power fluctuation are controlled within 5% by the laser system. 16-bit grey scale images are acquired by Fluoview software. SRS spectra were acquired by fixing the Stokes beam at 1031.2 nm and scanning the pump beam through the designated wavelength range point by point. 10 mM EdU (H2O) sample was used as a standard to give RIE of different probes. Fluorescence images were collected using the same Olympus FV3000 confocal microscope with CW laser excitation (405, 488, 561 and 640 nm, Coherent OBIS LX laser) and standard bandpass filter sets. The correlation coefficients (Pearson’s R value) between SRS images and fluorescence images were calculated using ‘Coloc 2’ tool of ImageJ.
# ER imaging: Cells were incubated in 40 µM Me-ER (14) with complete DMEM medium for 2 hours in the incubator. Cells were washed with PBS three times before imaging. For colocalization, 0.5 µM ER-Tracker™ Red (Invitrogen, E34250) was used to stain cells for 1 hour. For photo-uncaging, 405 nm laser was used to scan the selected field of view for 2 minutes (1.6 mW).
# lipid droplets = test: Live-cell photo-uncaging lipid droplets imaging, SRS/fluorescence co-localization; format: cell-based; conditions: live HeLa cells, SRS vs Lipid spot 610
# Excerpt: as §1
# Lipid droplets imaging by Me-LD (15): Cells were incubated in 20 µM Me-LD (15) with complete DMEM medium for 30 minutes in the incubator. Cells were washed with PBS three times before imaging. For colocalization, 0.5 x LipidSpot™ 610 (Biotium, #70069) was used to stain cells for 20 minutes. For photo-uncaging, 405 nm laser was used to scan the selected field of view for 2 minutes (1.6 mW).
# Lipid droplets imaging by Cyclo-LD (17): Cells were washed with PBS for three times before labeling. Cells were then incubated in 20 µM Cyclo-LD (17) with PBS for 30 minutes in the incubator. Cells were washed with PBS three times before imaging. For colocalization, 0.5 x LipidSpot™ 610 (Biotium, #70069) was used to stain cells for 20 minutes. For photo-uncaging, 405 nm laser (1.6 mW) was used to scan the selected field of view for 2 minutes.
# [1] = (HP)LC-MS for assessing the stability of cyclopropenone probes in physiological condition; format: physicochemical; conditions: 10 mM cysteine (PBS), 37° C., HPLC trace
# Protocol: The assessed probe was first dissolved in DMSO and later diluted in 10 mM cysteine (Sigma, 168149, dissolved in PBS) solution or DMEM (Corning, 35-015-CV) medium. Analytical HPLC coupled with mass spectrometry (LC-MS) was performed on Agilent 1290 infinity LC system using ZORBAX RRHD Eclipse Plus C18, 95 Å, 2.1 x 50 mm, 1.8 µm column with Agilent 6140 Series Quadrupole LCMS / LC-MS / MSD / Mass Spectrometer System. The mobile phase is water (0.1% AcOH) and acetonitrile with running method of gradient 5%-95% acetonitrile (1 ml/min, 4 min for total running time). The mass spectrometry detection region ranges from 100 to 800 AMU. The data shown in the main figures and supplementary figures are the absorption (280.8 nm) intensity traces.
# It was hypothesized that this was likely because the cyclopropenone structures are susceptible to nucleophilic attack, leading to ring-opened α,β-unsaturated acids derivatives. Cysteines, glutathione, and other biological thiols are strong nucleophiles and could easily deactivate cyclopropenones. The stability of 1-cyclo (1) in 10 mM cysteine phosphate-buffered saline (PBS) at 37° C. was therefore tested, mimicking physiological conditions.
# mitochondria = test: Live-cell photo-uncaging mitochondria imaging, SRS/fluorescence co-localization; format: cell-based; conditions: live HeLa cells
# Excerpt: as §1
# Mitochondria imaging: Cells were incubated in 16 µM Me-Mito (12) or Me-Mito^13C (16) with complete DMEM medium for 40 minutes in the incubator. Cells were washed with PBS three times before imaging. For colocalization, 80 nM MitoTracker™ Deep Red (Invitrogen, M22426) was used to stain cells for 25 minutes. […]
# [2] = Spontaneous Raman / hyperspectral SRS spectroscopy of probes and uncaged alkynes; format: physicochemical; conditions: for RIE (relative Raman intensity to EdU): 10 mM EdU (H2O) as standard; for Raman Peak: cell silent region, model systems
# Excerpt: as §1
# To perform spontaneous Raman spectroscopy, spontaneous Raman spectra were acquired using an upright confocal Raman spectrometer (Horiba Raman microscope; Xplora plus). A 532 nm YAG laser is used to illuminate the sample with a power of 12 mW on sample through a 100 x, N.A. 0.9 objective (MPLANN; Olympus) with 100 µm slit and 500 µm hole. Spectro/Raman shift center was set to be 2000.04 cm-1 . With a 1200 grating, Raman shift ranges from 690.81 cm-1 to 3141.49 cm-1 was acquired to cover whole biological relevant Raman peaks. The acquired spectra were processed by the LabSpec 6 software for baseline correction.
# Cyclopropenone caging has been previously adopted for photoactivation and subsequent biorthogonal labeling of fluorophores in fluorescence microscopy. […] Herein the alkyne Raman signal generation from photo-DIBO light-activation was first measured (FIG. 1A). […] Compared to 5-ethynyl-2′-deoxyuridine (EdU), the well-adopted benchmark for Raman intensity quantification, the relative Raman intensity to EdU (RIE) of the strained alkyne DIBO is only 1.8 (Table 1). […] Given this, it is reasoned that diphenylcyclopropenone (i.e. cyclopropenone-caged 1-yne, 1-cyclo, 1, FIG. 1A) should be a better photoactivatable Raman scaffold with higher Raman sensitivity after uncaging. Indeed, UV-uncaging of 1-cyclo (1), which started from a similarly weak Raman peak at 1860 cm^-1 from photo-DIBO, produced an intense sharp peak for 1-yne (2) at 2226 cm^-1 (FIG. 1B, dashed black vs solid blue spectra) with an improved RIE values to about 4
# live HeLa cells = test: SRS imaging of live HeLa cells incubated with unmethylated probes before and after 405 nm illumination; format: cell-based; conditions: 20 µM, 30 minutes of labeling; 2226 cm^-1 channel after 405 nm
# Protocol: FIG. 7 provides exemplary results from SRS imaging of live HeLa cells incubated with 1-cyclo (1, 20 µM, 30 minutes of labeling, top) and Cyclo-Mito (7, 20 µM, 30 minutes of labeling, bottom) at the CH3 (2940 cm^-1) channel, and the expected uncaged alkyne channel (2226 cm^-1) before and after 405 nm illumination. Scale bar: 10 µm.
# An integrated laser (picoEMERALD, Applied Physics and Electronics, Inc.) was used as a light source for both pump and Stokes beams. It produces 2 ps pump (tunable from 770 nm - 990 nm, bandwidth 0.5 nm, spectral bandwidth ~ 7 cm-1 ) and Stokes (1031.2 nm, spectral bandwidth 10 cm-1 ) beams with 80 MHz repetition rate. Stokes beam is modulated at 20 MHz by an internal electro-optic modulator. […] Laser powers are monitored through image acquisition by an internal power meter and power fluctuation are controlled within 5% by the laser system. […] Fluorescence images were collected using the same Olympus FV3000 confocal microscope with CW laser excitation (405, 488, 561 and 640 nm, Coherent OBIS LX laser) and standard bandpass filter sets. The correlation coefficients (Pearson’s R value) between SRS images and fluorescence images were calculated using ‘Coloc 2’ tool of ImageJ.
# lysosomes = test: Live-cell photo-uncaging lysosomes imaging, SRS/fluorescence co-localization; format: cell-based
# Excerpt: as §1
# Lysosomes imaging: Cells were incubated in 30 µM Me-Lyso (13) with complete DMEM medium for 2 hours in the incubator. Cells were washed with PBS three times before imaging. For colocalization, 0.4 x LysoView™ 488 (Biotium, #70067) was used to stain cells for 30 minutes. For photo-uncaging, 405 nm laser was used to scan the selected field of view for 2 minutes (1.6 mW).
# [3] = UV-Vis absorption spectra; format: physicochemical; conditions: 20 uM in DMSO
# Protocol: UV-Vis absorption spectra were recorded on a Varian Cary 50 UV-Vis Spectrophotometer (Agilent).
# [4] = Photoactivation (UV-uncaging) monitored by time-series spontaneous Raman spectra; format: physicochemical
# Protocol: The 365 nm UV light used to activate cyclopropenones comes from a UV handlamp (Analytik Jena UVP EL Series Lamp, UVLS-24, 4 Watt, 2 UV 254/365 nm, typically used for TLC monitoring in organic synthesis). The power of 365 nm UV of this handlamp was measured to be 15 mW/cm2 on samples.
# Next, the photo-uncaging kinetics for both 1-cyclo (1) and 2-cyclo (3) were compared. […] With 365 nm lamp illumination, the characteristic peaks of cyclopropenones (~1860 cm^-1) continue to drop while the alkyne peaks (2226 cm^-1) gradually increase for both molecules (FIG. 1D). […] The progression of the UV-activation reactions could also be confirmed by the change in the corresponding absorption spectra (FIG. 6).
# [5] = SRS vs ER tracker red, Fl/2205 cm^-1 channel
# [6] = SRS vs Mitotracker deep red, Fl/2225 cm^-1 channel
# [7] = live HeLa cells, SRS vs Lysoview 488, Fl/2205 cm^-1 channel
molecule,measurement,setting,value
Cc1ccc(S(=O)(=O)NCCCOc2cc(C)c(-c3c(-c4c(C)cc(C)cc4C)c3=O)c(C)c2)cc1 [Me-ER (14)],"targeting, photoactivation and imaging performances",endoplasmic reticulum,highly specific targeting
same,"correlation coefficient (Pearson's R value), set 1",endoplasmic reticulum; [5],0.86
same,"correlation coefficient (Pearson's R value), set 2",endoplasmic reticulum; [5],0.80
same,"correlation coefficient (Pearson's R value), set 3",endoplasmic reticulum; [5],0.90
Cc1cc(C)c(-c2c(-c3c(C)cc(OCCOCCOCCCCCCCl)cc3C)c2=O)c(C)c1 [Me-LD (15)],"correlation coefficient (Pearson's R value), set 1",lipid droplets; Fl/2205 cm^-1 channel,0.54
same,"correlation coefficient (Pearson's R value), set 2",lipid droplets; Fl/2205 cm^-1 channel,0.54
same,"correlation coefficient (Pearson's R value), set 3",lipid droplets; Fl/2205 cm^-1 channel,0.50
Cc1cc(C)c(-c2c(-c3c(C)cc(O)cc3C)c2=O)c(C)c1 [compound 8],time stable to cysteine,[1],≥ 24 h
Cc1cc(C)c(-c2c(-c3c(C)cc(OCCC[P+](c4ccccc4)(c4ccccc4)c4ccccc4)cc3C)c2=O)c(C)c1 [Me-Mito (12)],time stable to cysteine,[1],over 48 hours
same,"correlation coefficient (Pearson's R value), set 1",mitochondria; [6],0.85
same,"correlation coefficient (Pearson's R value), set 2",mitochondria; [6],0.82
same,"correlation coefficient (Pearson's R value), set 3",mitochondria; [6],0.88
same,SRS imaging at the alkyne channel after photoactivation,"mitochondria; two minutes of 405 nm laser illumination, 2205 cm^-1",bright mitochondria pattern
same,alkyne Raman peak / SRS channel after uncaging,[2]; organelle probes after UV / 405 nm uncaging,2205 cm⁻¹
O=c1c(-c2ccccc2)c1-c1ccc(OCCC[P+](c2ccccc2)(c2ccccc2)c2ccccc2)cc1.[Br-] [Cyclo-Mito (7)],uncaging signals in labeled live cells,live HeLa cells,did not produce any observable uncaging signals
Cc1cc(C)c(-c2c(-c3c(C)cc(OCCN(C)C)cc3C)c2=O)c(C)c1 [Me-Lyso (13)],"correlation coefficient (Pearson's R value), set 1",lysosomes; [7],0.60
same,"correlation coefficient (Pearson's R value), set 2",lysosomes; [7],0.67
same,"correlation coefficient (Pearson's R value), set 3",lysosomes; [7],0.62
same,lysosomes targeting (co-localization),lysosomes; live cells co-labeled with Lysoview 488,desired co-localization
"O=c1c(-c2ccccc2)c1-c1ccc(OCCOCCOCCCCCCCl)cc1 [Cyclo-LD (17), 2-(4-(2-(2-((6-chlorohexyl)oxy)ethoxy)ethoxy)phenyl)-3-phenylcycloprop-2-en-1-one]","correlation coefficient (Pearson's R value), set 1",lipid droplets; Fl/2226 cm^-1 channel,0.50
same,"correlation coefficient (Pearson's R value), set 2",lipid droplets; Fl/2226 cm^-1 channel,0.76
"dibenzocyclooctynes [DIBO, reference compound]",Abs,[3],323 nm
same,εabs,[3],24200 M⁻¹ cm⁻¹
same,RIE (relative Raman intensity to EdU),[2],1.8
same,Raman Peak,[2],2171 cm⁻¹
"O=c1c(C#Cc2ccccc2)c1-c1ccccc1 [2-cyclo (3), 2-phenyl-3-(phenylethynyl)cycloprop-2-en-1-one]",Abs,[3],324 nm
same,εabs,[3],32400 M⁻¹ cm⁻¹
same,uncaging kinetics k,"[4]; 365 nm illumination (15 mW/cm^2), increase of alkyne peak 2226 cm^-1",0.020 s⁻¹
same,"uncaging kinetics, fold faster than 1-cyclo (1)",[4]; 365 nm lamp illumination,about 5 fold
same,RIE (relative Raman intensity to EdU),[2],7.5
same,Raman Peak,[2],2218 cm⁻¹
"O=c1c(C#Cc2ccccc2)c(C#Cc2ccccc2)c1=O [3-cyclo (5), 3,4-Bis(phenylethynyl)-3-cyclobutene-1,2-dione]",Abs,[3],371 nm
same,εabs,[3],25500 M⁻¹ cm⁻¹
same,RIE (relative Raman intensity to EdU),[2],13
same,Raman Peak,[2],2194 cm⁻¹
"C(#Cc1ccccc1)c1ccccc1 [1-yne (2), diphenylacetylene]",Abs,[3],283 nm
same,εabs,[3],32300 M⁻¹ cm⁻¹
same,Raman Peak,[2],2226 cm⁻¹
